Assay results reported in article PMC11785708, “Design and synthesis of new quinazolinone derivatives: investigation of antimicrobial and biofilm inhibition effects” (Molecular Diversity, 2024).
Values after ≈ are worked out from the molar mass of the structure shown.

Tests used:
K. pneumoniae ATCC 13883 [1] = test: Agar well diffusion, K. pneumoniae; type: cell-based; settings: Klebsiella pneumoniae, ATCC13883; 100 μl of test compound 20 mg/ml in DMF; ciprofloxacin and fluconazole 30 μg/ml; 24 h; mean ± SD; read-out: diameters of inhibition zone, K. pneumoniae ATCC 13883
Procedure: (§1) The antimicrobial activity was tested against Gram positive bacteria: Bacillus cereus (B. cereus ATCC 6629), Bacillus subtilis (B. subtilis ATCC 6633), Staphylococcus aureus (S. aureus ATCC 6538), Gram negative bacteria: Klebsiella pneumoniae (K. pneumoniae ATCC 13883), Pseudomonas aeruginosa (P. aeruginosa ATCC 27953) and Candida albicans (C. albicans ATCC 10231). Glycerol stocks were thawed upon need and propagated into nutrient broth at 37 °C. The antibacterial activity of the compounds 9-32 was carried out in vitro using the agar well diffusion method, originally reported by […] and Bauer and coworkers and described by the National Committee for Clinical Laboratory Standards (NCCLS). Bacterial strains, adjusted at […] (equivalent to 0.5 McFarland), were used to inoculate nutrient agar plates. 9-mm diameter wells were punched into the solidified nutrient agar plates using sterile cork borer and 100 μl samples of the test compounds, dissolved in dimethyl formamide (DMF) at 20 mg/ml concentrations, were added and allowed to diffuse at 4 °C for 2 h. Subsequently, the plates were incubated overnight in an upright position at 37 °C. DMF was used as a negative control while ciprofloxacin and fluconazole (30 μg/ml) served as positive controls. After 24 h incubation, the diameters of the growth inhibition zones were recorded in mm. Data was expressed as mean ± standard deviation of three replicates.

P. aeruginosa ATCC 27953 [2] = test: Agar well diffusion, P. aeruginosa; type: cell-based; settings: Pseudomonas aeruginosa, ATCC27953; 100 μl of test compound 20 mg/ml in DMF; ciprofloxacin and fluconazole 30 μg/ml; 24 h; mean ± SD; read-out: diameters of inhibition zone, P. aeruginosa ATCC 27953
Procedure: as §1

B. subtilis ATCC 6633 [3] = test: Agar well diffusion, B. subtilis; type: cell-based; settings: Bacillus subtilis, ATCC6633; 100 μl of test compound 20 mg/ml in DMF; ciprofloxacin and fluconazole 30 μg/ml; 24 h; mean ± SD; read-out: diameters of inhibition zone, B. subtilis ATCC 6633
Procedure: as §1

C. albicans ATCC 10231 [4] = test: Agar well diffusion, C. albicans; type: cell-based; settings: Candida albicans, ATCC10231; 100 μl of test compound 20 mg/ml in DMF; ciprofloxacin and fluconazole 30 μg/ml; 24 h; mean ± SD; read-out: diameters of inhibition zone, C. albicans ATCC 10231
Procedure: as §1

B. cereus ATCC 6629 [5] = test: Agar well diffusion, B. cereus; type: cell-based; settings: Bacillus cereus, ATCC6629; 100 μl of test compound 20 mg/ml in DMF; ciprofloxacin and fluconazole 30 μg/ml; 24 h; mean ± SD; read-out: diameters of inhibition zone, B. cereus ATCC 6629
Procedure: as §1

S. aureus ATCC 6538 = test: Agar well diffusion, S. aureus; type: cell-based; settings: Staphylococcus aureus, ATCC6538; 100 μl of test compound 20 mg/ml in DMF; ciprofloxacin and fluconazole 30 μg/ml; 24 h; mean ± SD; read-out: diameters of inhibition zone, S. aureus ATCC 6538
Procedure: as §1

B. subtilis ATCC 6633 [6] = test: MIC determination, B. subtilis; type: cell-based, Bacillus subtilis; settings: serial dilutions, triplicate; for MIC: Bacillus subtilis, ATCC6633
Procedure: (§2) Serial dilutions of the test compounds were tested to determine their MIC against the most susceptible organisms. The MIC was expressed as the lowest concentration which inhibited the visible growth of the corresponding microorganism. All assays were performed in triplicate.

K. pneumoniae ATCC 13883 [7] = test: MIC determination, K. pneumoniae; type: cell-based, Klebsiella pneumoniae; settings: serial dilutions, triplicate; for MIC: Klebsiella pneumoniae, ATCC13883
Procedure: as §2

Cell viability MTT assay = type: cell-based; settings: human, BJ1 cells (normal skin fibroblasts)
Procedure: Cell viability testing at 5 mg/ml was carried out by colorimetric MTT assay on human normal cell line BJ1 (skin fibroblasts) to investigate the toxicity of the most broad spectrum derivatives 9, 15, 16, 18, 19, 20 and 29 (Table 3). The viability of the cells treated with the aforementioned derivatives was more than 87% at 5 mg/ml concentration. This gives indication that the compounds are tolerated and nontoxic for human cells, as the cytotoxic dose was higher than the therapeutic dose on most of microorganisms. It is worth mentioning that the safe limit of the percent of dead cells is not an absolute value and could be more than 10% as reported in previous studies.
The most broad spectrum compounds were evaluated for their cytotoxic activity against BJ1 cell line using colorimetric MTT [3-(4,5-dimethylthiazol-2-yl)-2,5-diphenyltetrazolium bromide] assay.

P. aeruginosa ATCC 27953 [8] = test: MIC determination, P. aeruginosa; type: cell-based, Pseudomonas aeruginosa; settings: serial dilutions, triplicate; for MIC: Pseudomonas aeruginosa, ATCC27953
Procedure: as §2

B. cereus ATCC 6629 [9] = test: MIC determination, B. cereus; type: cell-based, Bacillus cereus; settings: serial dilutions, triplicate
Procedure: as §2

C. albicans ATCC 10231 [10] = test: MIC determination, C. albicans; type: cell-based, Candida albicans; settings: serial dilutions, triplicate
Procedure: as §2

Row | Compound | zone of inhibition at 20000 µg/mL (K. pneumoniae ATCC 13883 [1]) [mm] | melting point [°C] | zone of inhibition at 20000 µg/mL (P. aeruginosa ATCC 27953 [2]) [mm] | zone of inhibition at 20000 µg/mL (B. subtilis ATCC 6633 [3]) [mm] | zone of inhibition at 20000 µg/mL (C. albicans ATCC 10231 [4]) [mm] | other results
1 | COc1cc(C=Nn2c(CN3CCCCC3)nc3ccccc3c2=O)cc(OC)c1OC [Compound 25, 2-(Piperidin-1-ylmethyl)-3-[(3,4,5-trimethoxybenzylidene)amino]quinazolin-4(3H)-one] | 14 ± 0.17 | 112 to 114 | 21 ± 0.17 | – | – | –
2 | O=c1c2ccccc2nc(CN2CCCCC2)n1N=Cc1ccc(Cl)cc1 [Compound 22, 3-[(4-Chlorobenzylidene)amino]-2-(piperidin-1-ylmethyl)quinazolin-4(3H)-one] | – | 130 | – | 10 ± 0.07 | – | –
3 | OC(Cn1cncn1)(Cn1cncn1)c1ccc(F)cc1F [Fluconazole, reference compound] | – | – | – | – | 20 ± 0.18 | –
4 | CCN(CC)Cc1nc2ccccc2c(=O)n1N=Cc1ccc([N+](=O)[O-])cc1 [Compound 14, 2-[(Diethylamino)methyl]-3-[(4-nitrobenzylidene)amino]quinazolin-4(3H)-one] | – | 155 | – | – | 12 ± 0.37 | –
5 | COc1cc(C=Nn2c(CN3CCOCC3)nc3ccccc3c2=O)cc(OC)c1OC [Compound 31, 2-(Morpholinomethyl)-3-[(3,4,5-trimethoxybenzylidene)amino]quinazolin-4(3H)-one] | – | 155 | – | – | – | –
6 | O=c1c2ccccc2nc(CN2CCOCC2)n1N=Cc1ccc(Cl)cc1 [Compound 28, 3-[(4-Chlorobenzylidene)amino]-2-(morpholinomethyl)quinazolin-4(3H)-one] | 16 ± 0.18 | 140 to 142 | – | 12 ± 0.2 | – | –
7 | Cc1ccc(C=Nn2c(CN3CCCCC3)nc3ccccc3c2=O)cc1 [Compound 23, 3-[(4-Methylbenzylidene)amino]-2-(piperidin-1-ylmethyl)quinazolin-4(3H)-one] | – | 124 | – | – | 11 ± 0.13 | –
8 | Cc1ccc(C=Nn2c(CN3CCCC3)nc3ccccc3c2=O)cc1 [Compound 17, 3-[(4-Methylbenzylidene)amino]-2-(pyrrolidin-1-ylmethyl)quinazolin-4(3H)-one] | – | 156 | 16 ± 0.22 | – | – | –
9 | O=c1c2ccccc2nc(CN2CCCCC2)n1N=Cc1ccccc1 [Compound 21, 3-(Benzylideneamino)-2-(piperidin-1-ylmethyl)quinazolin-4(3H)-one] | 12 ± 0.15 | 98 | – | 17 ± 0.14 | – | zone of inhibition at 20000 µg/mL (B. cereus ATCC 6629 [5]): 12 ± 0.16 mm
10 | CCN(CC)Cc1nc2ccccc2c(=O)n1N=Cc1ccc(OC)cc1 [Compound 12, 2-[(Diethylamino)methyl]-3-[(4-methoxybenzylidene)amino]quinazolin-4(3H)-one] | – | 102 to 104 | 18 ± 0.27 | – | – | –
11 | O=c1c2ccccc2nc(CN2CCCCC2)n1N=Cc1ccc([N+](=O)[O-])cc1 [Compound 26] | 11 ± 0.07 | 180 to 182 | – | 12 ± 0.11 | – | –
12 | CCN(CC)Cc1nc2ccccc2c(=O)n1N=Cc1ccc(Cl)cc1 [Compound 10, 3-[(4-Chlorobenzylidene)amino]-2-[(diethylamino)methyl]quinazolin-4(3H)-one] | 15 ± 0.15 | 124 | – | – | – | –
13 | CCN(CC)Cc1nc2ccccc2c(=O)n1N=Cc1ccc(C)cc1 [Compound 11, 2-[(Diethylamino)methyl]-3-[(4-methylbenzylidene)amino]quinazolin-4(3H)-one] | – | 74 | – | 14 ± 0.16 | – | –
14 | COc1ccc(C=Nn2c(CN3CCCCC3)nc3ccccc3c2=O)cc1 [Compound 24, 3-[(4-Methoxylbenzylidene)amino]-2-(piperidin-1-ylmethyl)quinazolin-4(3H)-one] | 12 ± 0.14 | 138 | 14 ± 0.21 | – | – | –
15 | COc1ccc(C=Nn2c(CN3CCOCC3)nc3ccccc3c2=O)cc1 [Compound 30, 3-[(4-Methoxylbenzylidene)amino]-2-(morpholinomethyl)quinazolin-4(3H)-one] | 14 ± 0.15 | 138 | – | – | – | zone of inhibition at 20000 µg/mL (S. aureus ATCC 6538): 12 ± 0.12 mm
16 | O=c1c2ccccc2nc(CN2CCOCC2)n1N=Cc1ccccc1 [Compound 27, 3-(Benzylideneamino)-2-(morpholinomethyl)quinazolin-4(3H)-one] | 14 ± 0.16 | 132 | – | 14 ± 0.15 | 13 ± 0.09 | –
17 | CCN(CC)Cc1nc2ccccc2c(=O)n1N=Cc1ccccc1 [Compound 9, 3-(Benzylideneamino)-2-[(diethylamino)methyl]quinazolin-4(3H)-one] | 12 ± 0.17 | 78 | 21 ± 0.36 | 15 ± 0.25 | – | MIC (B. subtilis ATCC 6633 [6]): 2000 µg/mL (≈ 5.98 mM); MIC (K. pneumoniae ATCC 13883 [7]): 1500 ± 60 µg/mL (≈ 4.49 mM); viability at 5 mg/ml (Cell viability MTT assay): 91.5 ± 2.21%; MIC (P. aeruginosa ATCC 27953 [8]): 2000 µg/mL (≈ 5.98 mM); MIC, P. aeruginosa ATCC 27953 (P. aeruginosa ATCC 27953 [8]): 2000 ± 290 µg/mL (≈ 5.98 mM); zone of inhibition at 20000 µg/mL (B. cereus ATCC 6629 [5]): 14 ± 0.09 mm; MIC (B. cereus ATCC 6629 [9]; Bacillus cereus, ATCC6629): 1000 µg/mL (≈ 2.99 mM); MIC, B. cereus ATCC 6629 (B. cereus ATCC 6629 [9]): 1000 ± 0 µg/mL (≈ 2.99 mM)
18 | Cc1ccc(C=Nn2c(CN3CCOCC3)nc3ccccc3c2=O)cc1 [Compound 29, 3-[(4-Methylbenzylidene)amino]-2-(morpholinomethyl)quinazolin-4(3H)-one] | 20 ± 0.15 | 128 | 14 ± 0.16 | 14 ± 0.06 | 13 ± 0.07 | MIC (B. subtilis ATCC 6633 [6]): 500 µg/mL (≈ 1.38 mM); MIC, B. subtilis ATCC 6633 (B. subtilis ATCC 6633 [6]): 500 ± 60 µg/mL (≈ 1.38 mM); MIC (K. pneumoniae ATCC 13883 [7]): 2500 µg/mL (≈ 6.9 mM); MIC, K. pneumoniae ATCC 13883 (K. pneumoniae ATCC 13883 [7]): 2500 ± 500 µg/mL (≈ 6.9 mM); viability at 5 mg/ml (Cell viability MTT assay): 87.6 ± 3.61%; MIC (P. aeruginosa ATCC 27953 [8]): 1500 µg/mL (≈ 4.14 mM); MIC (C. albicans ATCC 10231 [10]; Candida albicans, ATCC10231): 5000 µg/mL (≈ 13.8 mM); MIC, C. albicans ATCC 10231 (C. albicans ATCC 10231 [10]): 5000 ± 290 µg/mL (≈ 13.8 mM)
19 | CCN(CC)Cc1nc2ccccc2c(=O)n1N=Cc1cc(OC)c(OC)c(OC)c1 [Compound 13, 2-[(Diethylamino)methyl]-3-[(3,4,5-trimethoxybenzylidene)amino]quinazolin-4(3H)-one] | 12 ± 0.07 | 116 | 20 ± 0.18 | – | 12 ± 0.28 | –
20 | O=c1c2ccccc2nc(CN2CCOCC2)n1N=Cc1ccc([N+](=O)[O-])cc1 [Compound 32, 2-(Morpholinomethyl)-3-[(4-nitrobenzylidene)amino]quinazolin-4(3H)-one] | – | 200 | 18 ± 0.09 | 14 ± 0.27 | – | –
